Laboratory results published in paper PMC10509173, “Deep learning driven de novo drug design based on gastric proton pump structures” (Communications Biology, 2023).
“And” between values parts separate entries of the source, which are not always exact repeats. Identical values can stand only once.

Molecular target: H+,K+-ATPase (Sus scrofa, UniProt P19156)
Test: Dose-dependent inhibition of H+,K+-ATPase activity, membrane fractions
Settings: for H+,K+-ATPase activity, raw data of dose-dependent inhibition: single replicate values
[1] = [PCAB] -3.30103 (log, unit not given)
[2] = [PCAB] -3.52288 (log, unit not given)
[3] = [PCAB] -4 (log, unit not given)
[4] = [PCAB] -4.30103 (log, unit not given)
[5] = [PCAB] -4.52288 (log, unit not given)
[6] = [PCAB] -5 (log, unit not given)
[7] = [PCAB] -5.52288 (log, unit not given)
[8] = [PCAB] -6 (log, unit not given)
[9] = [PCAB] -6.30103 (log, unit not given)
[10] = [PCAB] -7 (log, unit not given)
[11] = [PCAB] -8 (log, unit not given)
[12] = [PCAB] -11 (log, unit not given; possibly placeholder for no compound)

Chain of H+,K+-ATPase (P19156 2-1034 limits assumed): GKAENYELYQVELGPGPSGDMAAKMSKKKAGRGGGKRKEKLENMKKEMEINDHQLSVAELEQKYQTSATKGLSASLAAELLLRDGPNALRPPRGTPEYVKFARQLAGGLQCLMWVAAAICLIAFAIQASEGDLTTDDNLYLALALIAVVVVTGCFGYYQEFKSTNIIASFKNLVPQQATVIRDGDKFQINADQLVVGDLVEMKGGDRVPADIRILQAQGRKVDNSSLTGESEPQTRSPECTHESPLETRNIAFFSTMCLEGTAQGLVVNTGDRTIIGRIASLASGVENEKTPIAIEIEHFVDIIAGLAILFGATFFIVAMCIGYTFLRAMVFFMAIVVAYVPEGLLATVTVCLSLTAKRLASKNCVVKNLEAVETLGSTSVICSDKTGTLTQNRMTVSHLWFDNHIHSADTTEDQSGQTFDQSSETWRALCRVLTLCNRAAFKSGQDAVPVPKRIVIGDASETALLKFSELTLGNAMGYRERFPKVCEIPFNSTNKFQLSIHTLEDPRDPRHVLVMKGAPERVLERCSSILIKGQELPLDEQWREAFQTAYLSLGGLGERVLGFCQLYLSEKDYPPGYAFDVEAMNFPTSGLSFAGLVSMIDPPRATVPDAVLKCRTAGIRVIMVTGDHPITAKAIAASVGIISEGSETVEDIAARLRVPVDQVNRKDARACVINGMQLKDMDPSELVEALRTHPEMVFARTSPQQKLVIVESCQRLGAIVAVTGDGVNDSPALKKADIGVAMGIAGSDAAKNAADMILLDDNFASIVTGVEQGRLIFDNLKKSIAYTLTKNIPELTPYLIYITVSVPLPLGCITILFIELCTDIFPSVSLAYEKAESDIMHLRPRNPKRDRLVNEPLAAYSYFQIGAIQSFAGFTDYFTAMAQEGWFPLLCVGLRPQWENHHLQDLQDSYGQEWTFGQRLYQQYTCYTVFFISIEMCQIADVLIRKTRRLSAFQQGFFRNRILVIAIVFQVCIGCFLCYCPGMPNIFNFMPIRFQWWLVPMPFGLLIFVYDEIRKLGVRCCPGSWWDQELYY
Chain of H+,K+-ATPase (P18434 whole entry partner): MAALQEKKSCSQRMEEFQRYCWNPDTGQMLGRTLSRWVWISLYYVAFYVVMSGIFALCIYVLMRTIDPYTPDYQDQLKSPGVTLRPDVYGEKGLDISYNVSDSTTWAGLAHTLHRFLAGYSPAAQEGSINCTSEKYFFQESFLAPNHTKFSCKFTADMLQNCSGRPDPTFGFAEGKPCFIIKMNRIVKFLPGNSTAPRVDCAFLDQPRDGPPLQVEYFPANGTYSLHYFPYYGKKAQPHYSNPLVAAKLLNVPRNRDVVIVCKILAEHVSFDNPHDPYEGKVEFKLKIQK

| Compound | IC50 [µM] | H+,K+-ATPase activity, raw data of dose-dependent inhibition [1] | H+,K+-ATPase activity, raw data of dose-dependent inhibition [2] | H+,K+-ATPase activity, raw data of dose-dependent inhibition [3] | H+,K+-ATPase activity, raw data of dose-dependent inhibition [4] | H+,K+-ATPase activity, raw data of dose-dependent inhibition [5] | H+,K+-ATPase activity, raw data of dose-dependent inhibition [6] | H+,K+-ATPase activity, raw data of dose-dependent inhibition [7] | H+,K+-ATPase activity, raw data of dose-dependent inhibition [8] | H+,K+-ATPase activity, raw data of dose-dependent inhibition [9] | H+,K+-ATPase activity, raw data of dose-dependent inhibition [10] | H+,K+-ATPase activity, raw data of dose-dependent inhibition [11] | H+,K+-ATPase activity, raw data of dose-dependent inhibition [12] | other results |
| --- | --- | --- | --- | --- | --- | --- | --- | --- | --- | --- | --- | --- | --- | --- |
| CNCC#CCOCc1cc(Cl)ccc1-c1ccc(Cl)c(F)c1 [DQ-04] | 33.9 ± 3.8 | 0.25 and -0.25 and -0.38 and 0.38 and -0.3 and -3.39 | 1.96 and 3.36 and 3.54 and 3.3 and 3.08 and 0.78 | 36.71 and 36.26 and 38.13 and 35.18 and 35.01 and 32.77 | 44 and 42.16 and 21.74 and 21.63 and 20.87 and 17.27 | 54.64 and 55.71 and 47.64 and 52.61 and 61.59 and 63.39 | 84.91 and 81.14 and 76.84 and 80.91 and 85.5 and 81.75 | 98.14 and 98.72 and 86.17 and 97.35 and 92.86 and 93.01 | 100.43 and 99.64 (2×) and 95.5 and 94.06 and 98.22 | 97.37 and 99.94 and 104.98 and 87.87 and 104.85 and 101.28 | 98.23 and 101.36 and 99.76 and 99.57 and 100.69 and 98.11 | 101.57 and 100.61 and 99.59 and 102.17 and 101.49 and 97.6 | 101.41 and 100.27 and 102.04 and 101.19 and 98.33 and 99.11 | – |
| CNCc1ccc(OCc2cc(Cl)ccc2OCc2ccc(Cl)cc2)c(Cl)c1 [DQ-07] | 3.2 ± 0.2 | 0.27 and 0.6 and 3.27 and 8.56 and 2.84 and 6.16 | -0.35 and -0.17 and 2.58 and 2.95 and 2.71 and 3.29 | -1.84 and -1.63 and 1.31 and 1.18 and 1.05 and 1.62 | -1.84 and -1.6 and 2.69 and 2.52 and 2.83 and 2.8 | -1.24 and -1.47 and 3.31 and 3.19 and 3.75 and 3.57 | 4.55 and 4.67 and 12.66 and 12.06 and 13.24 and 12.08 | 45.69 and 44.11 and 51.61 and 59.03 and 63.14 and 61.87 | 84.95 (2×) and 82.82 and 90.61 and 90.08 and 95.69 | 90.87 and 90.7 and 95.03 and 96.7 and 92.33 and 94.31 | 96.69 and 96.52 and 102.14 and 98.38 and 97.9 and 99.91 | 96.57 and 99.63 and 102.72 and 99.81 and 97.87 and 101.66 | 100.45 and 97.72 and 103.9 and 100.73 and 98.44 and 100.87 | – |
| CNCC#CCn1ccnc1NC(=O)c1ccccc1 [DQ-09] | > 2000 | – | – | – | – | – | – | – | – | – | – | – | 99.26 and 98.65 and 101.5 and 98.45 and 98.97 and 101.13 | H+,K+-ATPase activity, raw data of dose-dependent inhibition ([PCAB] -3.455 (log, unit not given)): 63.11 and 66.04 and 91.33 and 94.1 and 93.4 and 93.07; H+,K+-ATPase activity, raw data of dose-dependent inhibition ([PCAB] -3.67685 (log, unit not given)): 81.52 and 80.18 and 94.54 and 95.44 and 96.5 and 95.18; H+,K+-ATPase activity, raw data of dose-dependent inhibition ([PCAB] -4.15397 (log, unit not given)): 92.95 and 94.76 and 92.15 and 93.44 and 92.03 and 93.77; H+,K+-ATPase activity, raw data of dose-dependent inhibition ([PCAB] -4.455 (log, unit not given)): 99 and 99.88 and 97.42 and 97.61 and 95.39 and 91.33; H+,K+-ATPase activity, raw data of dose-dependent inhibition ([PCAB] -4.67685 (log, unit not given)): 97.65 and 97.31 and 107.67 and 103.09 and 98.87 and 105.02; H+,K+-ATPase activity, raw data of dose-dependent inhibition ([PCAB] -5.15397 (log, unit not given)): 99.93 and 96.29 and 97.51 and 98.34 and 88.34 and 93.86; H+,K+-ATPase activity, raw data of dose-dependent inhibition ([PCAB] -5.67685 (log, unit not given)): 101.49 and 99.52 and 93.88 and 106.02 and 103.98 and 106.05; H+,K+-ATPase activity, raw data of dose-dependent inhibition ([PCAB] -6.15397 (log, unit not given)): 99.11 and 99.53 and 98.71 and 99.47 and 95.43 and 99.9; H+,K+-ATPase activity, raw data of dose-dependent inhibition ([PCAB] -7.00046 (log, unit not given)): 100.13 and 101.44 and 98.87 and 102.62 and 97 and 100.92; H+,K+-ATPase activity, raw data of dose-dependent inhibition ([PCAB] -7.15397 (log, unit not given)): 100.4 and 99.7 and 97.72 and 99.58 and 95.86 and 98.79; H+,K+-ATPase activity, raw data of dose-dependent inhibition ([PCAB] -8.15397 (log, unit not given)): 99.08 and 99.65 and 97.54 and 97.72 and 99.14 and 96.06 |
| OCc1ccc(OCc2ccccc2OCc2ccccc2)cc1 [DQ-10] | 292 ± 67 | 43.38 and 44.41 and 45.92 and 45.13 and 45.42 and 45.93 | 45.74 and 44.58 and 47.45 and 47.39 and 47.18 and 50.77 | 56.05 and 53.52 and 55.98 and 54.18 and 54.88 and 57.9 | 76.31 and 75.72 and 105.39 and 105.73 and 101.62 and 104.74 | 93.17 and 93.5 and 97.58 and 97.31 and 105.67 and 98.13 | 105.05 and 103.17 and 107.45 and 104.86 and 105.64 and 102 | 97.45 and 97.17 and 101.99 and 103.63 and 102.59 and 100.01 | 100.27 and 101.99 and 106.56 and 102.96 and 101.68 and 100.85 | 96.05 and 88 and 94.05 and 95.4 and 97.95 and 97.13 | 93.18 and 94.04 and 98.08 and 97.4 and 96.62 and 95.63 | 97.94 and 95.96 and 97.5 and 99.04 and 99.69 and 102.43 | 97.84 and 98.7 and 100.06 and 101.42 and 100.78 and 96 | – |
| CN(C)Cc1ccc(OCc2ccccc2OCc2ccccc2)cc1 [DQ-11] | 5.57 ± 0.45 | -9.05 and -9.17 and -0.38 and -0.55 and 0.75 and 0.18 | -7.01 and -7.07 and 0.86 and 1.01 and 0.22 and 0.76 | 0.73 and 0.95 and 7.54 and 7.57 and 6.64 and 7.22 | 5.75 and 5.69 and 7.96 (2×) and 7.99 and 7.73 | 10.92 and 10.91 and 16.8 and 13.24 and 16.06 and 16.58 | 34.05 and 32.3 and 39.91 and 37.9 and 37.76 and 40.04 | 63.88 and 61.74 and 70.3 and 67.49 and 63.1 and 68.35 | 89.53 and 87.88 and 83.74 and 79.92 and 83.72 and 84.81 | 90.62 and 87.46 and 94.24 and 93.36 and 93.48 and 92.73 | 95.63 and 90.8 and 99.34 and 102.28 and 88.88 and 100.71 | 97.6 and 94.94 and 102 and 102.29 and 100.82 and 103.84 | 102.26 and 95.06 and 98.26 and 100.19 and 96.56 and 106.72 | – |
| NCc1ccc(OCc2ccccc2OCc2ccccc2)cc1 [DQ-12] | 1.54 ± 0.07 | -2.13 and -5.12 and -1.35 and 1.97 and -1.31 and 0.69 | -0.8 and -0.12 and -1.95 (2×) and -1.32 and -0.19 | 0.73 and 0 and -0.35 and -0.11 and -0.2 and 0.01 | 3.34 and 3.14 and -0.81 and -0.94 and -0.85 and -0.15 | 5.83 and 5.43 and 5.22 and 6.02 and 6.1 and 5.29 | 14.6 and 14.36 and 13.48 and 12.93 and 13.73 and 12.81 | 35.47 and 34.66 and 35.13 and 34.7 and 33.05 and 34.53 | 63.22 and 63.5 and 59.87 and 57.62 and 57.1 and 58.43 | 74.96 and 75.04 and 76.55 and 75.62 and 74.4 and 76.41 | 91.01 and 87.51 and 98.57 and 99.1 and 95.69 and 97.51 | 96.05 and 93.52 and 100.03 and 97.19 and 98.53 and 98.62 | 97.64 and 96.4 and 100.03 and 99.55 and 98.47 and 102.15 | – |
